# Test results from patent US20240189380A1, “COMPOSITIONS FOR INHIBITING EHP INFECTION IN SHRIMP AND RELATED METHODS” (priority 2022, published 2024).
# Tested on: EHP spores
# Assay: In vitro inactivation of polar tube extrusion of EHP spores
# Format: cell-based, Enterocytozoon hepatopenaei
# Settings: for polar tube extrusion of EHP spores compared to DMSO control: p>0.05; for polar tube extrusion rate: Batch 1 spores (high saline culture), 2 hours at 37° C.; for % of extrusion post-incubation: Batch 2 spores (low saline culture)
# Description: The mechanism of EHP infection involves extrusion of polar tube (adhesive mechanism). In an in vitro study, inactivation of polar tube extrusion of EHP spores were tested with selected active ingredients namely thymoquinone, cinnamic aldehyde, eugenol, and carvacrol. The stock solution of bioactive molecules was prepared in dimethyl sulfoxide (DMSO) and further working solution prepared with 1× sterile phosphate buffer saline (1×PBS).
# EHP spores were isolated and purified from HP of infected shrimps from high saline shrimp culture system (Batch 1) and low saline shrimp culture system (Batch 2). Purified spores were then incubated with the test molecules at a desired concentration for 2 hours at 37° C. Washed spores were then induced for polar tube extrusion with alkaline agent. The extrusion of the spore polar tubes was determined under a light microscope at 100× magnification by counting the number of extruded spores from a total of 100 spores and converting the number into % of extrusion.
# Statistical analysis. The One-way analysis of variance (ANOVA) and t-Test were performed to determine the significant differences at a 95% confidence interval of % polar tube extrusion between spores treated with bioactive molecules and the corresponding DMSO control. The analyses were carried out using STATGRAPHICS centurion.
smiles,measurement,setting,value
O=C/C=C/c1ccccc1 [Cinnamic aldehyde],polar tube extrusion of EHP spores compared to DMSO control,100 ppm,slight reduction
Cc1ccc(C(C)C)cc1O [Carvacrol],polar tube extrusion of EHP spores compared to DMSO control,100 ppm,slight reduction
CC1=CC(=O)C(C(C)C)=CC1=O [Thymoquinone],polar tube extrusion rate,10 ppm,43.92%
same,polar tube extrusion rate,100 ppm,6.34%
same,% of extrusion post-incubation,"10 ppm, 2% DMSO control 86.47%",40.31%
same,% of extrusion post-incubation,"100 ppm, 20% DMSO control 88.32%",0.31%
C=CCc1ccc(O)c(OC)c1 [Eugenol],polar tube extrusion of EHP spores compared to DMSO control,100 ppm,slight reduction
